How the values were obtained:
[1] = test system: dopamine neurons in the ventral tegmental area (VTA); experiment: Electrophysiology: VTA dopamine neuron recording after intra-NAc infusion; format: in vivo, rats
Procedure: Three experiments were run of this type. All included a vehicle. In addition, the components were as follows: • Experiment 1: • 100 ng CBD; 100 ng CBD+100 ng T007; 100 ng T007 • Experiment 2: • 50 ng CBD; 0.5 nmol n−3; 50 ng CBD+0.5 nmol n−3 • Experiment 3: • 1 ng CBD; 0.25 nmol n−3; 1 ng CBD+0.25 nmol n−3; 1 ng CBD+0.25 nmol n−3+100 ng T007 • In the above: • CBD=cannabidiol • T007=T0070907 (PPARg antagonist) • n−3=omega-3
The omega-3 formulation includes equal amounts of DHA and EPA. Two doses were used in this study. 0.5 nmol n−3 is made up of 0.5 nmol DHA and 0.5 nmol EPA. 0.25 nmol n−3 is made up of 0.25 nmol DHA and 0.25 nmol EPA.
In this procedure, rats were anesthetized with urethane. An electrode was used to record the baseline frequency of dopamine neurons in the ventral tegmental area (VTA) for 5 minutes. After the baseline recording, combinations of CBD, omega-3, and T007 (a PPARg antagonist) were infused into the nucleus accumbens (NAc).
The post-infusion frequency of that neuron was compared to its pre-infusion frequencies.
One of the characteristics of dopamine cells is that they have a tonic mode of firing and a burst mode of firing. Therefore, both the frequency and burst changes following infusions were analyzed. FIG. 1 looks at the frequency of VTA dopamine cells. The Y-axis is frequency (% Baseline). […] This means that after an intra-NAc infusion of 100 ng CBD, the dopamine cell would decrease in frequency about 15%.
FIG. 2 looking at difference in burst percentage. A burst is a group of signals occurring in a short period of time. Specifically, in this experiment, a burst is defined to be an event where 2 spikes occur within a timespan of 80 ms. […] As such, the number of bursts that occurred during pre-infusion was recording and the number of spikes that occurred in those bursts was determined. The number of those spikes occurring in those bursts was divided by the total number of spikes that occurred during the pre-infusion recording The same was done for the post-infusion recording and the difference between these 2 values was determined.

[2] = test system: rats; experiment: Elevated plus maze; format: in vivo; conditions: intra-NAc; for number of entries into the open arms: Experiment 3, FIG. 13
Procedure: In these experiments, the following was measured: • 1. Time in open arms • 2. Entries into open arms
In these experiments, the apparatus of FIG. 7 was used.
As shown, the apparatus includes 2 open arms and 2 closed arms that form a plus shape. Rats feel more secure in closed spaces and thus it would be expected that more anxious rats would spend more time in the closed arms and less time on the open arms.
Before each test, the same doses of drugs used in the electrophysiology experiments were infused.
The rat was then placed in the middle of the apparatus, facing into the closed arms and recorded for 10 minutes.
The number of entries into the open arms and the total time spent in the open arms was recorded. Less anxious rats would be expected to make more entries into the open arms and spend more time there as well.

[3] = test system: rats; experiment: Light dark box; format: in vivo; conditions: for time to make the second transition back into the light box: Experiment 1, FIG. 16, 100 ng T007
Procedure: In these experiments, the following was measured: • 1. First transition to the dark box • 2. Second transition to the light box • 3. Total number of transitions • 4. Time spent in the light box
One half of the box is open at the top and is brightly lit. There is an opening to the dark-box that is covered by a lid.
Rats would prefer to be in the dark box and would be anxious about going into the light box.
Following the infusion, the rate is placed in the light box facing away from the opening to the dark box. A 10 minute recording is made. During these 10 minutes, measurements are made of four things: • 1. The time it takes for the rat to make the first transition into the dark box • 2. The time it takes for the rat to make the second transition from the dark box back into the light box • 3. Number of transitions between boxes • 4. Time spent in light box
Therefore, it would be expected than less anxious rats would take a longer time to make the first transition into the dark box, spend less time to make the second transition into the light box, make more transitions between boxes, and spend more time in the light box.

[4] = test system: rats; experiment: Olfactory fear conditioning; format: in vivo; conditions: Experiment 3, FIG. 36, 1 ng CBD, 0.25 nmol omega-3
Text: The olfactory fear conditioning protocol is for measurement of the formation of fear memory. This protocol lasts three days. On day 1, the rat is habituated to two boxes (one with a striped background and one with a polka dot back ground).
On day 2, the rat receives a drug infusion and is placed into one of the boxes (previously assigned as the “shock box”). While in the box, the rat is exposed to 2 odours (peppermint and almond). The rat is exposed to one odour followed by the other odour 5 times. One of these odours were previously assigned as the “shock” odour (CS+) such that after exposure to the “shock” odour, the rat would receive a foot shock. There was no foot shock following exposure to the “safe” odour (CS−). On day 3, the rat was placed in the safe box. They were exposed to each odour (both CS+ and CS−) one at a time for 5 minutes. During the 5 minutes, freezing behaviour was recorded.
It would be expected that CBD would block the formation of fear memory and the rats would freeze a similar amount to CS+ and CS−.
2-way repeated measures ANOVA was performed for the three experiments. With reference to FIG. 34, there was no significant interaction effect by group x CS (p=0.209).

[5] = Experiment 3, FIG. 5, 1 ng CBD, 0.25 nmol omega-3, 1 ng CBD+0.25 nmol omega-3, combination+100 ng T007, intra-NAc, compared to vehicle
[6] = Experiment 3, FIG. 12, 1 ng CBD, 0.25 nmol omega-3, combination, combination+100 ng T007
[7] = 1 ng CBD, 0.25 nmol omega-3, combination, combination+100 ng T007
[8] = 100 ng CBD, 100 ng CBD+100 ng T007
[9] = Experiment 3, FIG. 24, 1 ng CBD, 0.25 nmol omega-3, combination, combination+100 ng T007
[10] = first experiment, FIG. 17, 100 ng CBD, 100 ng CBD+100 ng T007
[11] = first experiment, FIG. 18, 100 ng CBD, 100 ng CBD+100 ng T007

Row | Compound | VTA dopamine activity [1, 5] | time spent in open arms [2, 6] | number of entries into the open arms [2, 7] | time to make the second transition back into the light box [3, 8] | time to make the second transition [3, 9] | number of transitions between boxes [3, 10] | time spent in the light box [3, 11] | further results
1 | O=C(Nc1ccncc1)c1cc([N+](=O)[O-])ccc1Cl [T007] | blocked | blocked | blocked | blocked | blocked | blocked | blocked | difference between the freezing time to CS+ and CS− (fear memory formation) ([4]; combination, combination+100 ng T007): blocked slightly
2 | C=C(C)[C@@H]1CCC(C)=C[C@H]1c1c(O)cc(CCCCC)cc1O [CBD, cannabidiol] | not different from vehicle | ineffective | not effective | significantly decreased | ineffective | significantly increased | significantly increased | frequency (% Baseline) of VTA dopamine cells ([1]; Experiment 1, FIG. 1, 100 ng CBD intra-NAc infusion, post- vs pre-infusion): about 85%; VTA dopamine frequency ([1]; Experiment 1, FIG. 1, 100 ng CBD, 100 ng CBD+100 ng T007, 100 ng T007, intra-NAc): decreasing trend; decrease in frequency of the dopamine cell ([1]; Experiment 1, FIG. 1, after intra-NAc infusion of 100 ng CBD): about 15%; difference in burst percentage (VTA DA bursts) ([1]; Experiment 1, FIG. 2, 100 ng CBD, 100 ng CBD+100 ng T007, 100 ng T007, intra-NAc): very slight decrease; VTA dopamine activity ([1]; Experiment 2, FIG. 3, 50 ng CBD, 0.5 nmol omega-3, 50 ng CBD+0.5 nmol omega-3, intra-NAc): ineffective; time spent in open arms ([2]; Experiment 1, FIG. 8, 100 ng CBD, 100 ng CBD+100 ng T007, 100 ng T007, 10 minutes): slight increase; number of entries into open arms ([2]; Experiment 1, FIG. 9, 100 ng CBD, 100 ng CBD+100 ng T007, 100 ng T007, 10 minutes): slight increase; time spent in open arms ([2]; Experiment 2, FIG. 10, 50 ng CBD, 0.5 nmol omega-3, 50 ng CBD+0.5 nmol omega-3): not effective; number of entries into open arms ([2]; Experiment 2, FIG. 11, 50 ng CBD, 0.5 nmol omega-3, 50 ng CBD+0.5 nmol omega-3): not effective; time to make the second transition ([3]; Experiment 2, FIG. 20, 50 ng CBD, 0.5 nmol omega-3, 50 ng CBD+0.5 nmol omega-3): not effective; number of transitions between boxes ([3]; Experiment 3, FIG. 25, 1 ng CBD, 0.25 nmol omega-3, 1 ng CBD+0.25 nmol omega-3): ineffective; time spent in the light box ([3]; Experiment 3, FIG. 26, 1 ng CBD, 0.25 nmol omega-3, 1 ng CBD+0.25 nmol omega-3): ineffective; freezing time compared to vehicle ([4]; 1 ng CBD+0.25 nmol omega-3): not different from vehicle

Reference: patent publication US20260191811A1, “COMBINATION OF CANNABIDIOL AND A PPAR AGONIST” (priority 2020, published 2026)
